Patent US20260193258A1, “AGENT FOR PROMOTING PHOSPHORYLATION OF eIF2a” (ER Stress Research Institute, Inc., priority 2019, published 2026)

How the values were obtained:
human topoisomerase II = assay: Human topoisomerase II DNA relaxation assay (ProFoldin kit); assay type: biochemical; settings: 5 μL of evaluation sample solution (100 μM), fluorescence 485/535 nm, FIG. 4
Procedure: (§1) • Evaluation compound: Compound No. 1 of the present invention was used, and […] thereof was dissolved in 20 μL of DMSO to prepare a 20 mM solution. • Camptothecin: (FUJIFILM Wako Pure Chemical Corporation) 100 mg was dissolved in 57.4 mL of DMSO to prepare a 5 mM solution. • Etoposide: (FUJIFILM Wako Pure Chemical Corporation) 25 mg was dissolved in 424.8 μL of DMSO to prepare a 100 mM solution. • Human topoisomerase I/DNA relaxation assay kit […] (Manufactured by ProFoldin) • Human topoisomerase II/DNA relaxation assay kit HD[…] (Manufactured by ProFoldin) Measurement was performed in accordance with an instruction manual of ProFoldin. […] After the reaction, centrifugation was performed at 1,300 rpm for 30 seconds, and the reaction liquid was poured into a spin-column. The spin-column was rotated at 1,300 rpm for 2 minutes, and the liquid that had flowed out of the column was poured into a 96-well black plate. The liquid that had flowed out was subjected to a reaction by adding a fluorescent dye solution (up to 150 μL). The intensity of fluorescence excited with light at 485 nm was measured at 535 nm.

eIF2α = eIF2α phosphorylation-promoting activity (western blotting of 293A cell lysates); assay type: cell-based; settings: 293A cells, 16 hours at 37° C., Compound No. 1 at 5 μM, halofuginone at 50 nM, thapsigargin at 200 nM, FIG. 3
Procedure: • Host cells: 293A cells • Evaluation compound: Compound No. 1 of the present invention was used, and […] thereof was dissolved in 20 μL of DMSO to prepare a 20 mM solution. • Thapsigargin: (Cayman Chemical Company)
10 mg was dissolved in 76.8 mL of DMSO to prepare a 200 μM solution. • Halofuginon: (Cayman Chemical Company)
5 mg was dissolved in 554.2 μL of DMSO to prepare a 20 mM solution.
The above-mentioned 293A cells were seeded in a 96-well plate at 5×10^5 cells/well, and were cultured overnight in a DMEM solution of 10% fetal bovine serum (FBS). The next day, the medium was changed to a DMEM solution of 10% fetal bovine serum (FBS) containing Compound No. 1 at 5 μM, halofuginone at 50 nM, or thapsigargin at 200 nM, and the cells were cultured at 37° C. for 16 hours. After the cells had been washed with a PBS buffer, the cells were lysed with a RIPA buffer to extract proteins, and the proteins were separated according to size by an electrophoresis method of SDS-PAGE. The expression amount of an endoplasmic reticulum stress marker was measured by a western blotting method.

human topoisomerase I = molecular target: T1, human topoisomerase I (Homo sapiens, UniProt P11387); assay: Human topoisomerase I DNA relaxation assay (ProFoldin kit); assay type: biochemical; settings: 5 μL of evaluation sample solution (100 μM), fluorescence 485/535 nm, FIG. 4
T1 construct: purchased ProFoldin HRA100KE
T1 sequence (P11387 1-765): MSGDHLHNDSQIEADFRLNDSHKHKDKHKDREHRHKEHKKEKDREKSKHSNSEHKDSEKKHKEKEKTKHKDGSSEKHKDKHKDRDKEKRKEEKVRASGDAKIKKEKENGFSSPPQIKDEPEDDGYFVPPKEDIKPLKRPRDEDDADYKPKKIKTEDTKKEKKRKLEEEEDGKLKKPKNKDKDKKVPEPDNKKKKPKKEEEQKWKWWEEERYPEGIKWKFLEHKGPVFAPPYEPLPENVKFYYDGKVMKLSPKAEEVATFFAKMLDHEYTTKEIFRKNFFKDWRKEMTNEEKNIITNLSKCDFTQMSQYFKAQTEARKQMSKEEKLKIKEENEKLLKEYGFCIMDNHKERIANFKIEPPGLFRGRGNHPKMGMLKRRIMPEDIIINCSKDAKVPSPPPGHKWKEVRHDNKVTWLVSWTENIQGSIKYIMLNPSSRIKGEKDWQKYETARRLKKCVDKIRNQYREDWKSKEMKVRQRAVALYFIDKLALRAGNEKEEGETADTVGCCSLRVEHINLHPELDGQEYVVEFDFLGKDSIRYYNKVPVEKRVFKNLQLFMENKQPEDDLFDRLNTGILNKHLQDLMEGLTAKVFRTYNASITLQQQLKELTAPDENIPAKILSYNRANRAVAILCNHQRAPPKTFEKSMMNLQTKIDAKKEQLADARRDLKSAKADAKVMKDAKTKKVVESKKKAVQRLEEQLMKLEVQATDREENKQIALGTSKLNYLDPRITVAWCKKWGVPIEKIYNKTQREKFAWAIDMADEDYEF
Procedure: as §1

mouse naive CD4+ T cells = assay: Th17 cell differentiation-suppressing activity (flow cytometry); assay type: cell-based; settings: Compound No. 1 at 5 μM, halofuginone at 50 nM, 5 days of differentiation culture, FIG. 5
Procedure: Evaluation compound: Compound No. 1 of the present invention was used, and […] thereof was dissolved in 20 μL of DMSO to prepare a 20 mM solution. • Halofuginon: (Cayman Chemical Company)
5 mg was dissolved in 554.2 μL of DMSO to prepare a 20 mM solution. • Th17 cell inducer: A Th17 cell differentiation induction kit containing IL-6 and TGFβ1 as main components (CellXVivo Mouse Th17 Cell Differentiation Kit: R&D Systems) • Mouse helper T cell differentiation induction kit CDK017 (Techne Corporation)
Measurement was performed in accordance with an instruction manual of Techne Corporation. First, a cell culture plate was coated with an anti-hamster CD3 antibody. Mouse spleen cells were isolated into single cells, and mouse naive CD4^+ T cells were isolated using a mouse naive CD4^+ T cell isolation kit (MagCellect). The number of cells was counted. The isolated mouse naive CD4^+ T cells were dispersed in a mouse Th17 differentiation medium at 1×10^6 cells/mL. Compound No. 1 and halofuginone were added to the mouse Th17 differentiation medium at 5 μM and 50 nM, respectively. Next, the medium having the cells dispersed therein was added to the plate coated with the anti-hamster CD3 antibody, and humidified culture was continued for 3 days at 37° C. in the presence of 5% CO2. On the 3rd day, the medium was refreshed by adding an equal amount of the mouse Th17 differentiation medium without removing the original culture medium. Humidified culture was continued for 2 days at 37° C. in the presence of 5% CO2. After the 5 days of differentiation culture, the differentiated mouse Th17 cells were subjected to flow cytometry to analyze the expression of cytokines, and the number of cells differentiated into Th17 cells was determined.

Q: How did the “topoisomerase-inhibiting activity, human topoisomerase II” value (human topoisomerase II) turn out when “1-(2-chloro-5-methylphenyl)-4-oxo-7-(4-pyridyl)-naphthyridine [Compound No. 1]” was run?
A: The value was “did not show topoisomerase-inhibiting activity”.

Q: And the “topoisomerase-inhibiting activity, human topoisomerase II” value (human topoisomerase II; listed as No. 1)?
A: Its value is “free of topoisomerase-inhibiting activity”.

Q: And the “eIF2α phosphorylation-promoting effect (phosphorylated eIF2α expression amount)” value (eIF2α)?
A: Its value is “had an eIF2α phosphorylation-promoting effect”.

Q: And the “eIF2α phosphorylation-promoting effect (phosphorylated eIF2α expression amount)” value (eIF2α; listed as No. 1)?
A: Its value is “eIF2α phosphorylation-promoting effect”.

Q: What about the “topoisomerase-inhibiting activity, human topoisomerase I” value (human topoisomerase I) of the same compound?
A: Its value is “did not show topoisomerase-inhibiting activity”.

Q: And the “topoisomerase-inhibiting activity, human topoisomerase I” value (human topoisomerase I; listed as No. 1)?
A: Its value is “free of topoisomerase-inhibiting activity”.

Q: What about the “suppression of differentiation from mouse naive CD4+ T cells into Th17 cells” value (shortened to “suppression of differentiation”) (mouse naive CD4+ T cells) of the same compound?
A: The value was “remarkably suppressed differentiation”.

Q: And the “suppression of differentiation” value (mouse naive CD4+ T cells; listed as No. 1)?
A: Its value is “has Th17 cell differentiation-suppressing activity”.

Q: For `CC[C@@]1(O)C(=O)OCc2c1cc1n(c2=O)Cc2cc3ccccc3nc2-1` [camptothecin, reference compound], which “topoisomerase-inhibiting activity, human topoisomerase I” value (human topoisomerase I) is on record?
A: The value was “remarkably reduced topoisomerase I activity”.

Q: `COc1cc([C@@H]2c3cc4c(cc3[C@@H](O[C@@H]3O[C@@H]5CO[C@@H](C)O[C@H]5[C@H](O)[C@H]3O)[C@H]3COC(=O)[C@H]23)OCO4)cc(OC)c1O` [etoposide, reference compound] was tested. Which “topoisomerase-inhibiting activity, human topoisomerase II” value (human topoisomerase II) did it give?
A: Its value is “remarkably reduced topoisomerase II activity”.

Q: For `O=C(CC1NCCCC1O)Cn1cnc2cc(Br)c(Cl)cc2c1=O` (stereo not shown) [halofuginone, reference compound], which “eIF2α phosphorylation-promoting effect (phosphorylated eIF2α expression amount)” value (eIF2α) is on record?
A: The value was “eIF2α phosphorylation-promoting effect”.

Q: And the “suppression of differentiation” value (mouse naive CD4+ T cells)?
A: The value was “capable of inhibiting the induction of differentiation into Th17 cells”.

Q: How did the “eIF2α phosphorylation-promoting effect (phosphorylated eIF2α expression amount)” value (eIF2α) turn out when `C/C=C(/C)C(=O)O[C@H]1C(C)=C2[C@H]([C@@H]1OC(=O)CCCCCCC)[C@@](C)(OC(C)=O)C[C@H](OC(=O)CCC)[C@@]1(O)[C@H]2OC(=O)[C@@]1(C)O` [thapsigargin, reference compound] was run?
A: The value was “eIF2α phosphorylation-promoting effect”.
